In brackets after ≈: the same amount, converted by molar mass. Read-outs that look alike come from different tables or passages of the source.
How the values were obtained:
[1] = In vitro dissolution rate of the AZI (2015 Chinese pharmacopoeia, deionized water, 37° C., UV 482 nm); type: physicochemical; settings: at 120 min, 100 rpm
Protocol: The original AZI powder was dissolved in anhydrous ethanol to form a solution with a concentration of 2 mg/ml under ultrasonic dispersion at room temperature. Subsequently, hydrochloric acid (0.1 M) was added into the AZI solution to form a series of AZI solution with different concentrations (16, 32, 48, 64, 80, 96 μg/ml). Then, 5 ml of each AZI sample and 5 ml of sulfuric acid (73.5%) were added into a test tube and mixed, after that the resultant mixture was kept for reaction for 30 min at the room temperature. Finally, UV absorption was measured at a wavelength of 482 nm to determine the concentration of the AZI solution, and a standard AZI curve can be plotted.
The dissolution rate was determined according to the method of 2015 Chinese pharmacopoeia (XC II). Firstly, 2 mg of AZI was placed in 100 ml of deionized water, and stirred at 100 rpm and 37° C. […]
Then, 2 ml sulfuric acid (73.5%) and 2 ml of the resultant filtrate were added to a test tube to form a mixture, and the mixture was kept for 30 min. Finally, UV absorption was measured at a wavelength of 482 nm to determine the AZI concentration. The dissolution rate of AZI was calculated using Eq. 2: Dissolution rate (%)=(Cn×V2+C1×V1+C2×V1+ . . . +Cn-1×V1)×100%/m (2) […]

[2] = cited from earlier work; for water solubility: atazenavir: as a free base
[3] = free base; preclinical animal models; cited from earlier work

CC[C@H]1OC(=O)[C@H](C)[C@@H](O[C@H]2C[C@@](C)(OC)[C@@H](O)[C@H](C)O2)[C@H](C)[C@@H](O[C@@H]2O[C@H](C)C[C@H](N(C)C)[C@H]2O)[C@](C)(O)C[C@@H](C)CN(C)[C@H](C)[C@@H](O)[C@]1(C)O [original AZI, Azithromycin]
dissolution rate of AZI [1]: 1.31%

CCOc1cc(CC(=O)N[C@@H](CC(C)C)c2ccccc2N2CCCCC2)ccc1C(=O)O [repaglinide]
water solubility [2]: 37 µg/mL (≈ 81.8 µM)

COC(=O)N[C@H](C(=O)N[C@@H](Cc1ccccc1)[C@@H](O)CN(Cc1ccc(-c2ccccn2)cc1)NC(=O)[C@@H](NC(=O)OC)C(C)(C)C)C(C)(C)C [atazenavir]
oral bioavailability [3]: poor oral bioavailability
water solubility [2]: < 1 µg/mL

CC(C(=O)O)c1ccc2c(c1)[nH]c1ccc(Cl)cc12 (stereo not drawn) [carprofen]
solubility in water [2]: 3.79 µg/mL (≈ 13.8 µM)
solubility in water ([2]; value in brackets): 3.79 µg/mL (≈ 13.8 µM)

Reference: patent publication US11723867B2, “Method for preparing pharmaceutical composition and pharmaceutical composition” (UPM-Kymmene Corporation, priority 2019, dated 2023)
